Patent US11446287B2, “Compounds and methods for EP300 or CBP modulation and indications therefor” (Opna Immuno-Oncology SA, priority 2019, dated 2022)

These compounds were tested against T1, Recombinant human CBP containing the bromodomain (CBP-BD (1043-1159)) (Homo sapiens, UniProt Q92793) (assay: CBP Alphascreen binding assay). Conditions: read-out: CREBBP (CBP) IC50.
T1 construct: Recombinant human CBP bromodomain (CBP-BD (1043-1159)); made in house; host or cells: E. coli BL21-CodonPlus (DE3), modified pET vector
T1 sequence (Q92793 1081-1197): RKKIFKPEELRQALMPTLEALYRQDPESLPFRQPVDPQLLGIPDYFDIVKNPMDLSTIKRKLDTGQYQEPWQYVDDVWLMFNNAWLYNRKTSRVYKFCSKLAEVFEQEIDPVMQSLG
Summary of the method: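 Buffer: 50 mM HEPES pH 7.5, 50 mM NaCl, 0.01% BSA, 0.01% Triton X-100, 2 mM DTT. The signal was normalised to plate controls and fitted with a four-parameter curve to give IC50.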

Which IC50 does the source give for Cc1noc(C)c1-c1cnc2c(c1)c(-c1ccc(C(=O)O)cc1OC(F)(F)F)cn2-c1ccc(F)cc1 [P-0279, 4-(5-(3,5-dimethylisoxazol-4-yl)-1-(4-fluorophenyl)-1H-pyrrolo[2,3-b]pyridin-3-yl)-3-(trifluoromethoxy)benzoic acid] here?
Its IC50 is 0.1 to 1000 nM.

For Cc1noc(C)c1-c1cnc2c(c1)c(-c1cnn(CC(=O)O)c1)cn2C(C1CC1)C1CC1 [P-0280, 2-(4-(1-(dicyclopropylmethyl)-5-(3,5-dimethylisoxazol-4-yl)-1H-pyrrolo[2,3-b]pyridin-3-yl)-1H-pyrazol-1-yl)acetic acid], which IC50 is on record?
Its IC50 is 0.1 to 1000 nM.

CCOc1cc(O)c(C(=O)O)cc1-c1cn(-c2ccc(F)cc2F)c2ncc(-c3c(C)noc3C)cc12 [P-0249, 5-(1-(2,4-difluorophenyl)-5-(3,5-dimethylisoxazol-4-yl)-1H-pyrrolo[2,3-b]pyridin-3-yl)-4-ethoxy-2-hydroxybenzoic acid] was tested. Which IC50 did it give?
The IC50 was 0.1 to 1000 nM.

For CCOc1cc(C(=O)O)c(F)c(OCC)c1-c1cn(-c2ccc(F)cc2F)c2ncc(-c3c(C)noc3C)cc12 [P-0297, 4-(1-(2,4-difluorophenyl)-5-(3,5-dimethylisoxazol-4-yl)-1H-pyrrolo[2,3-b]pyridin-3-yl)-3,5-diethoxy-2-fluorobenzoic acid], which IC50 is on record?
Its IC50 is 0.1 to 1000 nM.

With Cc1noc(C)c1-c1cnc2c(c1)c(-c1ccc(C(=O)O)cc1OC(F)(F)F)cn2[C@H]1CCOC1 [P-0285, (S)-4-(5-(3,5-dimethylisoxazol-4-yl)-1-(tetrahydrofuran-3-yl)-1H-pyrrolo[2,3-b]pyridin-3-yl)-3-(trifluoromethoxy)benzoic acid] as the compound, how does the IC50 read?
The IC50 was 0.1 to 1000 nM.

Which IC50 does the source give for CCOc1cc(C(=O)O)cc(OCC)c1-n1cc(-c2cnn(C3CC3)c2)c2ncc(-c3c(C)noc3C)cc21 [P-0265, 4-(3-(1-cyclopropyl-1H-pyrazol-4-yl)-6-(3,5-dimethylisoxazol-4-yl)-1H-pyrrolo[3,2-b]pyridin-1-yl)-3,5-diethoxybenzoic acid] here?
The IC50 was 0.1 to 1000 nM.

CC(=O)N1CCC(n2cc(-c3ccc(C(=O)O)cc3OC(F)(F)F)c3cc(-c4c(C)noc4C)cnc32)CC1 [P-0291, 4-(1-(1-acetylpiperidin-4-yl)-5-(3,5-dimethylisoxazol-4-yl)-1H-pyrrolo[2,3-b]pyridin-3-yl)-3-(trifluoromethoxy)benzoic acid] was tested. Which IC50 did it give?
Its IC50 is 0.1 to 1000 nM.

How did the IC50 turn out when CCOc1cc(C(=O)O)cc(OCC)c1-n1cc(-c2cnn(CC(C)(C)O)c2)c2ncc(-c3c(C)noc3C)cc21 [P-0260, 4-(6-(3,5-dimethylisoxazol-4-yl)-3-(1-(2-hydroxy-2-methylpropyl)-1H-pyrazol-4-yl)-1H-pyrrolo[3,2-b]pyridin-1-yl)-3,5-diethoxybenzoic acid] was run?
The IC50 was 0.1 to 1000 nM.

Cc1noc(C)c1-c1cnc2c(-c3ccccc3)cn(-c3c(OCC(F)(F)F)cc(C(=O)O)cc3OCC(F)(F)F)c2c1 [P-0298, 4-(6-(3,5-dimethylisoxazol-4-yl)-3-phenyl-1H-pyrrolo[3,2-b]pyridin-1-yl)-3,5-bis(2,2,2-trifluoroethoxy)benzoic acid] was tested. Which IC50 did it give?
The IC50 was 0.1 to 1000 nM.

Which IC50 does the source give for Cc1noc(C)c1-c1cnc2c(-c3cccc(C(=O)O)c3F)c(C(F)(F)F)n([C@@H](C)c3ccccn3)c2c1 [P-0245, (S)-3-(6-(3,5-dimethylisoxazol-4-yl)-1-(1-(pyridin-2-yl)ethyl)-2-(trifluoromethyl)-1H-pyrrolo[3,2-b]pyridin-3-yl)-2-fluorobenzoic acid] here?
The IC50 was 0.1 to 1000 nM.

For CCOc1cc(C(=O)O)cc(OCC)c1-n1cc(C2CCC(F)(F)CC2)c2ncc(-c3c(C)noc3C)cc21 [P-0271, 4-(3-(4,4-difluorocyclohexyl)-6-(3,5-dimethylisoxazol-4-yl)-1H-pyrrolo[3,2-b]pyridin-1-yl)-3,5-diethoxybenzoic acid], which IC50 is on record?
Its IC50 is 0.1 to 1000 nM.

Cc1cc(-c2c(C(F)(F)F)n([C@@H](C)c3ccccn3)c3cc(-c4c(C)noc4C)cnc23)ccc1C(=O)O [P-0243, (S)-4-(6-(3,5-dimethylisoxazol-4-yl)-1-(1-(pyridin-2-yl)ethyl)-2-(trifluoromethyl)-1H-pyrrolo[3,2-b]pyridin-3-yl)-2-methylbenzoic acid] was tested. Which IC50 did it give?
The IC50 was 1000 to 8000 nM.
